# Test results from paper PMC9424906 (Frontiers in Pharmacology, 2022).
# Tests used:
# [1] = set-up: species or system human
# Experimental: Allometric methods were used to predict human plasma clearance and volume of distribution ([Mahmood and Balian, 1996]; [Sharma and McNeill, 2009]). Human PK prediction was carried out with GastroPlus, version 9.6 (SimulationsPlus, Lancaster, CA)
# To predict human exposures after oral administration, human PK parameters were estimated using allometric scaling and human PK profile was simulated using GastroPlus. The allometric scaling was performed as previously described ([Mahmood and Balian, 1996]).
# [2] = system: plateable cryopreserved hepatocytes; format: in vitro ADME, mouse, rat, dog, monkey, human
# Experimental: Plateable cryopreserved hepatocytes from male CD-1 mouse (Lot# DYF, 81.2% viability), male SD rat (Lot# PMD, 88.1% viability), male Beagle dog (Lot# YTK, 90.0% viability), male Cynomolgus monkey (Lot# GJV, 88.7% viability), and male human (Lot# PDC, 82.9% viability) were purchased from BioIVT (Baltimore, MD). Following vendor’s instructions, the hepatocyte vials were thawed in a 37°C water bath and cells were suspended in 5 mL of corresponding plating media (antibiotic added, rodent media for mouse and rat, dog media for dog, and primate media for monkey and human). The cells were manually counted using Trypan Blue method and were diluted to target concentration (0.35 million/mL for mouse and 0.7 million/mL for other species) with plating media. Diluted cells (500 µL) were then added to Collagen-I coated 24-well plate, distributed evenly, and incubated for 4 h for attaching. Media was changed 4 h prior to compound addition.
# After 24 and 48 h, the reaction was stopped by adding 3x volumes of cold acetonitrile to the reaction mixture. Samples were vortexed and centrifuged to precipitate proteins. The supernatants were transferred to clean tubes and dried under a stream of N2 for ∼20 min at ambient temperature to remove most of organic solvent. The remaining liquid was dried by lyophilization. […]
# [3] = Pharmacokinetics in Beagle dogs; format: in vivo, dog; details: for half-life: plasma
# Experimental: (§1) Adult male C57BL/6 mice and Sprague Dawley rats were purchased from Charles River Laboratory (Wilmington, MA). PK studies for mice and rats were conducted at NIH animal facility (Bethesda, MD). In-life dog and monkey PK studies were conducted at Absorption System (San Diego, CA) and Frontage Labs (Concord, OH), respectively. Dogs and monkeys were fasted overnight prior to dose administrations. All experimental procedures were reviewed and approved by the Animal Care and Use Committee (ACUC) of the NIH Division of Veterinary Resources (DVR) or CRO labs for in-life studies.
# The dosing volume was 1.0 mL/kg for both groups. Plasma (both IV and PO groups) and urine (IV group) samples were collected over a period of 48 h.
# (§2) Blood samples from all groups and species were collected in K2EDTA tubes and stored on wet ice pending processing. Blood was centrifuged at 2200 g at 4°C for 10 min to isolate plasma. All samples were stored at -80°C until analysis.
# (§3) Phoenix WinNonlin, version 8.1 (Certara, St. Louis, MO), was used to perform PK analysis with the non-compartmental approach (Models 200 and 201 for PO and IV datasets). The area under the plasma concentration vs. time curve (AUC) was calculated using the linear trapezoidal method. The terminal rate constant (λ) was obtained from the slope of at least three data points of the apparent terminal phase of the log-linear plasma concentration vs. time curve when available. AUC0–∞ was estimated as the sum of the AUC0–t (where t is the time of the last measurable concentration) and Ct/λ. The apparent terminal half-life (t½) was calculated as 0.693/λ. Bioavailability (F) was calculated using ratios of dose normalized AUC (AUC/Dose) obtained from PO and IV PK studies.
# ENT1 = ENT1 (Homo sapiens, UniProt Q99808); assay: Nucleoside transporter uptake, ENT1-transfected MDCK cells
# Sequence of ENT1 (Q99808 whole entry): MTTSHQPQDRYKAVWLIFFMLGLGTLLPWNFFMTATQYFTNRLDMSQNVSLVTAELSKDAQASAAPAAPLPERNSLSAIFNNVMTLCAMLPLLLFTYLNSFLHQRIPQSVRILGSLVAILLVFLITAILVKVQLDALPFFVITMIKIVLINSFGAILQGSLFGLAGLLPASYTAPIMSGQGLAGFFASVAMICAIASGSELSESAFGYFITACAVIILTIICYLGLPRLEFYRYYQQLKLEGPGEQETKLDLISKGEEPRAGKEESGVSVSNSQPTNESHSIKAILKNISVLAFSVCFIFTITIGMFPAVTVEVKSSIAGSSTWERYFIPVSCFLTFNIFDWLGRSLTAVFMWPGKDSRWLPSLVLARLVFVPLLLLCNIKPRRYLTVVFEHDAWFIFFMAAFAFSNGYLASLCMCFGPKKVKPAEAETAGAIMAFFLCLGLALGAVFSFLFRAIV
# [4] = Pharmacokinetics in C57BL/6 mice; format: in vivo, mouse; details: male
# Experimental: as §1
# Male C57BL6 mice (n = 3 per time point, 24–40 g) were dosed at 5 mg/kg IV or 10 mg/kg oral gavage. The dosing volume was 3 mL/kg for IV and 10 ml/kg for PO. All dosing solutions were freshly prepared on the day of administration. Blood samples were collected over 24 h.
# as §2, §3
# MATE2-K = details: cited from earlier work
# physchem = format: physicochemical; details: pH 7.4, aqueous buffer, kinetic from dmso stock
# Experimental: Kinetic aqueous solubility was determined at NCATS using Pion’s patented µSOL assay as described previously ([Sun et al., 2019]).
# [5] = format: in vitro ADME, human, rat, mouse, dog, monkey
# Experimental: (§4) Samples were analyzed using UPLC-MS/MS.
# [6] = Liver microsomal stability, SD rat; format: in vitro ADME; details: Sprague-Dawley, liver microsomes, pH 7.4, 0.5 mg/mL
# Experimental: as §4
# [7] = male, beagle, dog, in vivo, iv, 2 mg/kg
# [8] = male, beagle, dog, in vivo, po, 5 mg/kg
# [9] = C57BL/6, mouse, in vivo, iv, 5 mg/kg
# [10] = C57BL/6, mouse, in vivo, po, 10 mg/kg
compound,measurement,setting,value
N#C[C@@]1(c2ccc3c(N)ncnn23)O[C@H](CO)[C@@H](O)[C@H]1O [GS-441524],Calculated human CLp as share of human hepatic blood flow,[1]; allometric scaling,approximately 10%
same,Predicted human CLp,"[1]; allometric scaling from mouse, rat, monkey, dog",0.162 L/h/kg
same,Predicted human Vdss,[1]; human,0.6 L/kg
same,Glucuronidation and sulfation metabolites in plateable hepatocytes,[2],detected at trace amount
same,Phosphorylated metabolites in plateable hepatocytes,[2],no detectable phosphorylated metabolites
same,t1/2,"[3]; Dog, PO 5 mg/kg, 5 mg/kg",4.1 ± 1.1 h
same,Vd,"[3]; male, Beagle, dog, in vivo, iv, 2 mg/kg, Vdss",0.9 L/kg
same,half-life,"[3]; male, Beagle, dog, iv, 2 mg/kg, IV 2 mg/kg",~4 h
same,half-life,"[3]; male, Beagle, dog, po, 5 mg/kg, PO 5 mg/kg",~4 h
same,Mean urinary excretion of unchanged parent drug,[3]; [7],~64%
same,clearance,[3]; [7],0.246 ± 0.042 L/h/kg
same,Cmax,[3]; [8],6.01 µg/mL
same,Tmax,[3]; [8],0.28 ± 0.19 h
same,bioavailability,[3]; [8],85 ± 17%
same,AUC(0-inf),"[3]; male, beagle, in vivo, Dog, PO 5 mg/kg",19 µg·h/mL
same,Inhibition of uptake by reference inhibitor,"ENT1; ENT1-transfected cells, reference inhibitor NBMPR, 30 µM GS-441524",92.3%
same,Substrate of ENT1,ENT1; MDCK,substrate
same,Vd,[4]; [9],2.4 L/kg
same,clearance,[4]; [9],1.56 L/h/kg
same,AUC(0-inf),[4]; [10],2.54 µg·h/mL
same,Cmax,[4]; [10],0.582 µg/mL
same,Tmax,[4]; [10],1.5 h
same,bioavailability,[4]; [10],39%
same,half-life,"[4]; C57BL/6, plasma, Mouse, PO 10 mg/kg",3.9 h
same,Substrate of MATE2-K,MATE2-K,not a substrate
same,solubility kinetic,physchem,0.042 mg/mL
same,Stability in cytosolic fractions,[5],stable
same,Stability in liver microsomes,[5],stable
same,half-life at 1 µM,[6],1.02 ± 0.15 h
